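A five-concentration, 48-hour dose response in 96-well plates underlies each endpoint, interpolated linearly between surrounding concentrations. Abbreviation: GI50, concentration required for 50% inhibition of growth. TGI marks complete inhibition of growth.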
Legend:
Assay in all cases: growth of human tumour cells (NCI), 48 h
K-562 leukemia = system: K-562 leukemia
ACHN renal = system: ACHN renal
MOLT-4 leukemia = system: MOLT-4 leukemia
BT-549 breast = system: BT-549 breast
CCRF-CEM leukemia = system: CCRF-CEM leukemia
SF-295 CNS = system: SF-295 CNS
HT29 colon = system: HT29 colon
SF-539 CNS = system: SF-539 CNS
SK-MEL-28 melanoma = system: SK-MEL-28 melanoma
MDA-MB-231 breast = system: MDA-MB-231 breast
786-0 renal = system: 786-0 renal
EKVX NSCLC = system: EKVX NSCLC
T-47D breast = system: T-47D breast
HCT-116 colon = system: HCT-116 colon
MALME-3M melanoma = system: MALME-3M melanoma
SK-MEL-2 melanoma = system: SK-MEL-2 melanoma
SNB-19 CNS = system: SNB-19 CNS
OVCAR-8 ovarian = system: OVCAR-8 ovarian
SF-268 CNS = system: SF-268 CNS
TK-10 renal = system: TK-10 renal
UACC-62 melanoma = system: UACC-62 melanoma
A549 NSCLC = system: A549 NSCLC
HOP-62 NSCLC = system: HOP-62 NSCLC
M14 melanoma = system: M14 melanoma
LOX IMVI melanoma = system: LOX IMVI melanoma
DU-145 prostate = system: DU-145 prostate
A498 renal = system: A498 renal
NCI-H226 lung = system: NCI-H226 lung
SK-OV-3 ovarian = system: SK-OV-3 ovarian
UACC-257 melanoma = system: UACC-257 melanoma
OVCAR-5 ovarian = system: OVCAR-5 ovarian
IGROV1 ovarian = system: IGROV1 ovarian
MDA-MB-435 = system: MDA-MB-435
CAKI-1 renal = system: CAKI-1 renal
NCI/ADR-RES ovarian = system: NCI/ADR-RES ovarian
KM12 colon = system: KM12 colon
HCC-2998 colon = system: HCC-2998 colon
SW-620 colon = system: SW-620 colon
MCF7 breast = system: MCF7 breast
NCI-H522 lung = system: NCI-H522 lung
U251 CNS = system: U251 CNS
RPMI-8226 leukemia = system: RPMI-8226 leukemia
HS 578T breast = system: HS 578T breast
HOP-92 NSCLC = system: HOP-92 NSCLC
PC-3 prostate = system: PC-3 prostate
HCT-15 colon = system: HCT-15 colon
NCI-H23 lung = system: NCI-H23 lung
SK-MEL-5 melanoma = system: SK-MEL-5 melanoma
RXF 393 renal = system: RXF 393 renal
COLO 205 colon = system: COLO 205 colon
OVCAR-3 ovarian = system: OVCAR-3 ovarian
SNB-75 CNS = system: SNB-75 CNS
NCI-H460 lung = system: NCI-H460 lung
OVCAR-4 ovarian = system: OVCAR-4 ovarian
SN12C renal = system: SN12C renal
SR leukemia = system: SR leukemia
UO-31 renal = system: UO-31 renal

With O=c1oc2ccc(Br)cc2c(=O)n1-c1ccc(F)cc1F the GI50 (K-562 leukemia) was 2.4 µM, the TGI (K-562 leukemia) was > 100 µM and the GI50 (ACHN renal) was 2.44 µM. The TGI (ACHN renal) was 7.99 µM, the GI50 (MOLT-4 leukemia) was 3.12 µM and the TGI (MOLT-4 leukemia) was > 100 µM. For the same compound, the GI50 (BT-549 breast) was 1.79 µM, the TGI (BT-549 breast) was 5.5 µM and the GI50 (CCRF-CEM leukemia) was 3.91 µM. The TGI (CCRF-CEM leukemia) was > 100 µM, the GI50 (SF-295 CNS) was 1.88 µM and the TGI (SF-295 CNS) was 3.71 µM. The GI50 (HT29 colon) was 3.45 µM, the TGI (HT29 colon) was 27.8 µM and the GI50 (SF-539 CNS) was 2.17 µM. For the same compound, the TGI (SF-539 CNS) was 9.21 µM, the GI50 (SK-MEL-28 melanoma) was 1.04 µM and the TGI (SK-MEL-28 melanoma) was 5.8 µM. The GI50 (MDA-MB-231 breast) was 2.11 µM, the TGI (MDA-MB-231 breast) was 6.96 µM and the GI50 (786-0 renal) was 3.23 µM. The TGI (786-0 renal) was 11.6 µM, the GI50 (EKVX NSCLC) was 2.03 µM and the TGI (EKVX NSCLC) was 9.32 µM. The GI50 (T-47D breast) was 1.77 µM, the TGI (T-47D breast) was 6.94 µM and the GI50 (HCT-116 colon) was 2.48 µM. The TGI (HCT-116 colon) was 8.37 µM, the GI50 (MALME-3M melanoma) was 1.59 µM and the TGI (MALME-3M melanoma) was 5.87 µM. The GI50 (SK-MEL-2 melanoma) was 2.12 µM, the TGI (SK-MEL-2 melanoma) was 6.13 µM and the GI50 (SNB-19 CNS) was 2.3 µM. For the same compound, the TGI (SNB-19 CNS) was > 100 µM, the GI50 (OVCAR-8 ovarian) was 2.81 µM and the TGI (OVCAR-8 ovarian) was 24.2 µM. It also gave a GI50 (SF-268 CNS) of 2.62 µM, a TGI (SF-268 CNS) of 21.8 µM and a GI50 (TK-10 renal) of 4.53 µM. The TGI (TK-10 renal) was 19.2 µM, the GI50 (UACC-62 melanoma) was 1.01 µM and the TGI (UACC-62 melanoma) was 4.51 µM. The GI50 (A549 NSCLC) was 3.17 µM, the TGI (A549 NSCLC) was > 100 µM and the GI50 (HOP-62 NSCLC) was 2.45 µM. For the same compound, the TGI (HOP-62 NSCLC) was 8.3 µM, the GI50 (M14 melanoma) was 1.59 µM and the TGI (M14 melanoma) was 7.55 µM. The GI50 (LOX IMVI melanoma) was 2.79 µM, the TGI (LOX IMVI melanoma) was 12.4 µM and the GI50 (DU-145 prostate) was 3.82 µM. The TGI (DU-145 prostate) was 27.7 µM, the GI50 (A498 renal) was 1.16 µM and the TGI (A498 renal) was 3.02 µM. The GI50 (NCI-H226 lung) was 2.32 µM, the TGI (NCI-H226 lung) was 13.8 µM and the GI50 (SK-OV-3 ovarian) was 0.398 µM. It also gave a TGI (SK-OV-3 ovarian) of 3.38 µM, a GI50 (UACC-257 melanoma) of 1.78 µM and a TGI (UACC-257 melanoma) of 6.67 µM. For the same compound, the GI50 (OVCAR-5 ovarian) was 3.79 µM, the TGI (OVCAR-5 ovarian) was > 100 µM and the GI50 (IGROV1 ovarian) was 1.94 µM. For the same compound, the TGI (IGROV1 ovarian) was 24.8 µM, the GI50 (MDA-MB-435) was 2.85 µM and the TGI (MDA-MB-435) was 10.4 µM. The GI50 (CAKI-1 renal) was 1.72 µM, the TGI (CAKI-1 renal) was 6.1 µM and the GI50 (NCI/ADR-RES ovarian) was 2.9 µM. For the same compound, the TGI (NCI/ADR-RES ovarian) was 30.5 µM, the GI50 (KM12 colon) was 2.75 µM and the TGI (KM12 colon) was 8.49 µM. The GI50 (HCC-2998 colon) was 3.54 µM, the TGI (HCC-2998 colon) was 18.4 µM and the GI50 (SW-620 colon) was 2.96 µM. The TGI (SW-620 colon) was 16.7 µM, the GI50 (MCF7 breast) was 2.57 µM and the TGI (MCF7 breast) was > 100 µM. The GI50 (NCI-H522 lung) was 2.6 µM, the TGI (NCI-H522 lung) was 14.9 µM and the GI50 (U251 CNS) was 2.51 µM. For the same compound, the TGI (U251 CNS) was 31.5 µM, the GI50 (RPMI-8226 leukemia) was 1.66 µM and the TGI (RPMI-8226 leukemia) was 7.07 µM. For the same compound, the GI50 (HS 578T breast) was 2.11 µM, the TGI (HS 578T breast) was 8.01 µM and the GI50 (HOP-92 NSCLC) was 0.425 µM. The TGI (HOP-92 NSCLC) was 4.74 µM, the GI50 (PC-3 prostate) was 2.85 µM and the TGI (PC-3 prostate) was 12.7 µM. The GI50 (HCT-15 colon) was 3.04 µM, the TGI (HCT-15 colon) was 12.8 µM and the GI50 (NCI-H23 lung) was 2.55 µM. For the same compound, the TGI (NCI-H23 lung) was 10.1 µM, the GI50 (SK-MEL-5 melanoma) was 1.38 µM and the TGI (SK-MEL-5 melanoma) was 2.82 µM. For the same compound, the GI50 (RXF 393 renal) was 2.27 µM, the TGI (RXF 393 renal) was 6.34 µM and the GI50 (COLO 205 colon) was 3.92 µM. The TGI (COLO 205 colon) was 16.4 µM, the GI50 (OVCAR-3 ovarian) was 2.41 µM and the TGI (OVCAR-3 ovarian) was 11.4 µM. The GI50 (SNB-75 CNS) was 1.02 µM, the TGI (SNB-75 CNS) was 3.98 µM and the GI50 (NCI-H460 lung) was 2.79 µM. For the same compound, the TGI (NCI-H460 lung) was 25.6 µM, the GI50 (OVCAR-4 ovarian) was 1.65 µM and the TGI (OVCAR-4 ovarian) was 8.45 µM. For the same compound, the GI50 (SN12C renal) was 2 µM, the TGI (SN12C renal) was 8.61 µM and the GI50 (SR leukemia) was 2.67 µM. The TGI (SR leukemia) was > 100 µM, the GI50 (UO-31 renal) was 1.28 µM and the TGI (UO-31 renal) was 5.93 µM.

Reference: PubChem BioAssay (NCI)
